# Columns and labels:
# [1] = tested on: non-α4 integrins, including LFA-1; conditions: cited from earlier work
# α4β1-CS-1 = molecular target: T1, α4β1-CS-1 (Homo sapiens, UniProt P05556+P13612); test: CS-1 cell adhesion assay, Jurkat J6 cells; assay type: cell-based; conditions: J6 cells to CS-1; read-out: Inhibition of cell adhesion (IC50)
# T1 construct: characterized in human J6 cells which express VLA-4; endogenous in cells; host or cells: Jurkat J6 cells (human lymphoblast cell line)
# Method: (§1) Jurkat J6 cells (human lymphoblast cell line) were grown as a suspension culture in RPMI 1640 supplemented with FCS (10%) and glutamine (2 mM). RPMI8866 cells (human B lymphoid cell line) were grown as a suspension culture in RPMI 1640 supplemented with FCS (10%) and glutamine (2 mM). RBL-2H3 cells (rat basophilic cell line) were cultured in Eagle's MEM plus Earles salts supplemented with 2 mM L-glutamine, 1 mM sodium pyruvate, 1× non-essential amino acids, 1 mM Na pyruvate 10% heat inactivated foetal calf serum.
# Polystyrene 96-well microtitre plates were coated with CS-1 (connecting segment 1, a cell attachment domain of fibronectin) at a concentration of 0.01 mg/mL in bicarbonate buffer overnight at 4° C. The solution was aspirated and the plates washed twice with PBS. The plates were then incubated at room temperature in the presence of 3% BSA for 60 min, ‘flicked’ to expel the BSA and washed twice in bicarbonate buffer. J6 or RPMI cells (as required) were labelled with the fluorescent dye BCECF-AM (10 μM and 6×10^6 cells/mL) for 10 min at 37° C. before the excess was removed by centrifugation at 500 g for 5 min and the cells resuspended at a cell concentration of 1.2×10^7 cells/mL in HBSS. Equal volumes of HBSS containing the compound of formula I (over concentration range 19.0 pM to 5 μM) and cells were added to the CS-1 coated plates. […] The plates were counted in a Wallac Viktor.
# [2] = tested on: RPMI 8866 binding to VCAM-1; test: VCAM cell adhesion assay, RPMI 8866 cells; assay type: cell-based; conditions: Homo sapiens; RPMI 8866 cells to VCAM-1; read-out: Inhibition of cell adhesion (IC50)
# Method: as §1
# (§2) Polystyrene 96-well microtitre plates were coated with IgG at a concentration of 0.05 mg/mL in bicarbonate buffer for 2 hours at 37° C. The solution was aspirated and the plates washed twice with PBS. The plates were then incubated overnight at 4° C. with a 1:4000 dilution of VCAM-1 of 3% BSA in PBS. Prior to use the VCAM-1 was aspirated and the plates washed twice with PBS.
# (§3) J6 or RPMI cells (as required) were labelled with the fluorescent dye BCECF-AM (10 μM and 6×10^6 cells/mL) for 10 min at 37° C. before the excess was removed by centrifugation at 500 g for 5 min and the cells resuspended at a cell concentration of 1.2×10^7 cells/mL in HBSS. Equal volumes HBSS containing the compound of formula I (over concentration range 38.1 pM to 10 μM) and cells were added to the VCAM-1 coated plates. […] The plates were counted in a Wallac Viktor.
# conjunctival CD4 T cells = test: Conjunctival T cell infiltration (CD4 immunohistochemistry), desiccating stress model; assay type: in vivo, mouse; conditions: topical 30 mg/mL, 60 μg per eye, 5 days DS
# Method: Female C57BL/6 mice, aged 6 to 8 weeks, were subjected to DS for 5 days (DS5) as described previously (de Paiva et al., 2006b; Niederkorn et al., 2006). Topical bilateral treatment with 1 eye drop per eye (2 μL volume) or subcutaneous injection (4 μL volume), 2 times per day, was initiated on day 1 concurrently with DS and continued through day 4. Treatment with the compound of formula I or dexamethasone phosphate 0.1% was compared to correspondingly treated vehicle controls. Mice were randomized to receive one of the test articles. […] Treatment effects were assessed on corneal staining with Oregon Green Dextran (OGD); expression of inflammatory markers in ocular surface tissues by real time PCR; cell population analysis in draining cervical lymph nodes by FACS analysis; conjunctival T cell infiltration by immunohistochemistry.
# For immunohistochemistry, the eyes and adnexa of 5 mice/group (n=5) were excised, embedded in optimal cutting temperature (OCT compound; VWR, Suwanee, Ga.), and flash frozen in liquid nitrogen. […] Positively stained cells were counted in the goblet cell rich area of the conjunctiva, over a length of at least 500 μm in the epithelium for a distance of 500 μm using image-analysis software (NIS Elements Software, version 3.0, BR, Nikon). […]
# α4β1-VCAM-1 = molecular target: T2, α4β1-VCAM-1 (Homo sapiens, UniProt P05556+P13612); test: VCAM cell adhesion assay, Jurkat J6 cells; assay type: cell-based; conditions: J6 cells to VCAM-1; read-out: Inhibition of cell adhesion (IC50)
# T2 construct: characterized in human J6 cells which express VLA-4; endogenous in cells; host or cells: Jurkat J6 cells (human lymphoblast cell line)
# Method: as §1, §2, §3
# T2 sequence (P13612 34-1032): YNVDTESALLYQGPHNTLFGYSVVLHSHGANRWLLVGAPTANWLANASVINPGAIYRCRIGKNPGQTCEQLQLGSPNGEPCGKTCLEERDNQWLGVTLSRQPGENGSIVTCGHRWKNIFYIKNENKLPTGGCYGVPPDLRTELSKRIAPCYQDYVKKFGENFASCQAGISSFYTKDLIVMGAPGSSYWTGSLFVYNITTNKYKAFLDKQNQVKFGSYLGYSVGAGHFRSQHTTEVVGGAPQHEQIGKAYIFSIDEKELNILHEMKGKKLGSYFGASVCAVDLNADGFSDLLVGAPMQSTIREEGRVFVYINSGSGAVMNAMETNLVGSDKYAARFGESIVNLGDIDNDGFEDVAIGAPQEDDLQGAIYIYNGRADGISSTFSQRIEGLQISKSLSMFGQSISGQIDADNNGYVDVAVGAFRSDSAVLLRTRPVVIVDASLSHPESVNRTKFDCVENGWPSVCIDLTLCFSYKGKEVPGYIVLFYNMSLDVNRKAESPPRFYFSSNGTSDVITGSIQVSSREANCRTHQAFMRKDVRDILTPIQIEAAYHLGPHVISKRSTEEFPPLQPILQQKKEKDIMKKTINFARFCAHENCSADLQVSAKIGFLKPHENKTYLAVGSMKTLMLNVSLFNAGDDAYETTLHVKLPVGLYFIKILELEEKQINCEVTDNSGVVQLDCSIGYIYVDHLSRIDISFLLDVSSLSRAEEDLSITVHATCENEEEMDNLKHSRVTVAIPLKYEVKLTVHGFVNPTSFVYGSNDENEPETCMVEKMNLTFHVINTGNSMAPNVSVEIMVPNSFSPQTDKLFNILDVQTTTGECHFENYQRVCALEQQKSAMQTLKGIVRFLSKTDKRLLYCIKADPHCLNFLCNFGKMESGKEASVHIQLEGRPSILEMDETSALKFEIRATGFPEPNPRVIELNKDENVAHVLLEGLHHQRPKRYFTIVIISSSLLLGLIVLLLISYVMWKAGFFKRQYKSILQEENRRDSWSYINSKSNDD
# T2 sequence (P05556 21-798): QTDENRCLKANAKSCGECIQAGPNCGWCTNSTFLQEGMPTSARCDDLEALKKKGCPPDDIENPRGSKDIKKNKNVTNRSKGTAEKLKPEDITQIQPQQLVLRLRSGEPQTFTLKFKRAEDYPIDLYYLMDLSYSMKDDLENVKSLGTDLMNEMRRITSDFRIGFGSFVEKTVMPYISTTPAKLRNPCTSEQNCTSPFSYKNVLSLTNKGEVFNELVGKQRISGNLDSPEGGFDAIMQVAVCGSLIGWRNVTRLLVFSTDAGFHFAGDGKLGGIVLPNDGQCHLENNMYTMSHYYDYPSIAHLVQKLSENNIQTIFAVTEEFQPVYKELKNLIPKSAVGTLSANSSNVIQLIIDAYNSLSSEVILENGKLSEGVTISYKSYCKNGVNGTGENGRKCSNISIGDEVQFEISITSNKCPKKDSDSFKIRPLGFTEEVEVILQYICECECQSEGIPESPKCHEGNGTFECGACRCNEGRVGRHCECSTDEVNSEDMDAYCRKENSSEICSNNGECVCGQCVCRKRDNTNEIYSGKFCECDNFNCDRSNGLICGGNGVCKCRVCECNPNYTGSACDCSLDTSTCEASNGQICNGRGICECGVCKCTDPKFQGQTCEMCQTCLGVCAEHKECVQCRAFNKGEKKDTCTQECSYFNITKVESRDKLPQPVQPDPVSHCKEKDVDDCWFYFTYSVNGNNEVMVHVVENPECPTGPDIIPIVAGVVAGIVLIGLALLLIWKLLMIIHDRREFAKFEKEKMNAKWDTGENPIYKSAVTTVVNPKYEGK
# T1 sequence (P13612 34-1032): as the sequence (P13612 34-1032) above
# T1 sequence (P05556 21-798): as the sequence (P05556 21-798) above
compound,measurement,setting,value
"Cc1ccccc1OCC(=O)N[C@@H](CC(C)C)C(=O)N[C@@H](Cc1ccc(OC(=O)N2CCC(C(N)=O)CC2)cc1)C(=O)O [GW559090, (2S)-3-[4-({[4-(Aminocarbonyl)-1-piperidinyl]carbonyl}oxy)phenyl]-2-[((2S)-4-methyl-2-{[2-(2-methylphenoxy)acetyl]amino}pentanoyl)amino]propanoic acid]",Selectivity vs. non-α4 integrins,[1],highly selective
same,IC50,α4β1-CS-1,8.04 nM
same,IC50,[2],4.81 nM
same,Conjunctival T cell infiltration (cell density),conjunctival CD4 T cells,decreases
same,IC50,α4β1-VCAM-1,7.72 nM

# — patent US10413535B2, “Pharmaceutical compositions comprising an integrin ALPHA4 antagonist for use in treating ocular inflammatory conditions” (AXEROVISION, INC., priority 2015, dated 2019)
